# Experimental data reported in patent US10000500B2 (PROMEGA CORPORATION, priority 2016, dated 2018).
# What was measured:
# Format in all cases: biochemical
# NANOLUC® Luciferase [1] = target: T1, NANOLUC® Luciferase (Oplophorus gracilirostris, UniProt Q9GV45, A31E/A60N/A81I/F95D/I117V/K70R/L54V/L99Q/M102K/N193R/P142E/Q151K/Q38R/Q45L/V71I/Y165I); assay: Luminescence assay with purified NANOLUC luciferase (Example 7); details: bioluminescence with NANOLUC luciferase
# Procedure: Each compound to be screened was dissolved in DMSO (5 mM) and then further diluted to 100 uM in NANO-GLO® Luciferase Assay Buffer. Each diluted substrate was then combined in equal volumes with purified NANOLUC® Luciferase diluted into CO2 independent media+10% FBS. Initial light output for each substrate was measured in a GLOMAXI-Multi+luminometer three minutes after substrate addition and then at five minute intervals as a means to determine signal half-life.
# The synthesized coelenterazine analogues (compounds of formula (I) and (II)) were evaluated for their suitability as luciferase substrates. NANOLUC® luciferase was employed for the screening because it is a small (19 kDa), stable, and particularly bright enzyme.
# Renilla luciferase [2] = target: T2, Renilla luciferase (Renilla reniformis, UniProt P27652); assay: Km and Vmax substrate titration with Renilla luciferase (Example 8)
# T2 sequence (P27652 1-311): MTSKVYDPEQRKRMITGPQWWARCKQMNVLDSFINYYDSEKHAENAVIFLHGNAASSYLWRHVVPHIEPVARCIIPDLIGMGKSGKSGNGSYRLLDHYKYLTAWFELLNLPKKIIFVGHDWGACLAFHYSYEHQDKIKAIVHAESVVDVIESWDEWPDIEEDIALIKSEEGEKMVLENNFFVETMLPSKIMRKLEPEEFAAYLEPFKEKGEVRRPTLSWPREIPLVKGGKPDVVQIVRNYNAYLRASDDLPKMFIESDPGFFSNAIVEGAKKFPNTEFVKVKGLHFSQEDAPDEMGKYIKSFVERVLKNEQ
# Procedure: (§1) Each compound to be screened was diluted to a concentration of 100 uM in Renilla Glo Luciferase Assay buffer (Promega Corporation) and then further diluted to 2×serial dilution in Renilla Glo Luciferase Assay Buffer. NANOLUC® luciferase and Renilla luciferase were diluted to a concentration of 4 ng/ml in OptiMEM+0.1% FBS. 50 ul of each compound dilution was then mixed with 50 ul of each enzyme dilution and incubated for 1 minute at room temperature. Light output for each compound was measured on a GLOMAX®-Multi+ luminometer. Km and Vmax were calculated for each enzyme/substrate combination using a GraphPad Prism Michaelis-Menten non-linear fit (FIGS. 1A-ID).
# NANOLUC® Luciferase [3] = target: T1, NANOLUC® Luciferase; assay: Km and Vmax substrate titration with NanoLuc luciferase (Example 8); details: for light produced by NanoLuc luciferase compared to Renilla: FIGS. 1A-1D
# Procedure: as §1
# Renilla luciferase [4] = target: T2, Renilla luciferase; assay: Spectral measurements in various buffers with Renilla luciferase (Example 10); design: Low / High / Width: unit not given here; details: for RenillaGlo (spectral peak, Table 4): RenillaGlo buffer; for High / Low / Peak / Width: emission spectrum
# Procedure: (§2) Each compound to be screened was diluted to a concentration of 100 uM (50 uM final concentration) in Renilla Glo Luciferase Assay buffer (Promega Corporation), NANO-GLO Luciferase Assay Buffer (Promega Corporation), or 20 uM (10 uM final) in OptiMEM+0.1% FBS. NANOLUC® luciferase and Renilla luciferase were serially diluted to 4, 40, and 400 ng/ml in OptiMEM+0.1% FBS. 50 ul of each compound dilution was mixed with 50 ul enzyme dilution and incubated for 1 minute at room temperature. Autoluminescence spectra of AS-353 was measured by adding 20 uM of substrate to OptiMEM+20% FBS and then 50 ul of this dilution was combined with 50 ul of OptiMEM+0.1% FBS. Spectral measurements were measured using a Tecan M-1000 luminometer. ([…]).
# NANOLUC® Luciferase [5] = target: T1, NANOLUC® Luciferase; assay: Spectral measurements in various buffers with NANOLUC luciferase (Example 10); details: for NanoGlo (spectral peak, Table 4) / OptiMEM (spectral peak, Table 4) / High / Low / Peak / Width: NanoLuc; for NanoGlo (spectral peak, Table 4): NanoGlo buffer; for High / Low / Peak / Width: emission spectrum; for shift of the NanoLuc luciferase spectral properties: FIGS. 3A-3C and 4A-4D
# Procedure: as §2
# NANOLUC® Luciferase [6] = target: T1, NANOLUC® Luciferase; assay: Luminescence assay with purified NANOLUC luciferase (Example 7); details: value marked (Autolum): autoluminescence
# NANOLUC® Luciferase [7] = target: T1, NANOLUC® Luciferase; assay: Enzyme titration with NanoLuc luciferase (Example 9B); details: NanoLuc luciferase, FIG. 2B
# Procedure: Renilla luciferase and NanoLuc Lucifersase were diluted to a concentration of 4 ug/ml (4 ng/uL) in OptiMEM+0.1% FBS. 10× serial dilutions of the luciferases were then prepared in OptiMEM+0.1% FBS. Each substrate was diluted to 100 uM into Renilla Glo Luciferase assay buffer (Promega Corporation). The 10× enzyme serial dilutions were then combined with the substrate dilutions, 50 ul mixed with 50 ul compound, and incubated for 1 minute at room temperature. Light output for each compound was measured on a GLOMAX®-Multi+ luminometer.
# [8] = Renilla luciferase 4 ng/ml, Renilla Glo buffer, Michaelis-Menten fit
# [9] = NanoLuc 4 ng/ml, Renilla Glo buffer, Michaelis-Menten fit
# T1 sequence (Q9GV45 28-196 with tags or gaps with the stated changes limits assumed): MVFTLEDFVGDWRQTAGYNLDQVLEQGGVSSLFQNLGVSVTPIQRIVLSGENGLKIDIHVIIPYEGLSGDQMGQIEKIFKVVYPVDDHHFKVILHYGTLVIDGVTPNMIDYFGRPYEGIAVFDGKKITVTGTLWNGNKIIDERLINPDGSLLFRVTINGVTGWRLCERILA
Structure (SMILES),"λmax, nm (NANOLUC® Luciferase [1]) [nm]","RenillaGlo (spectral peak, Table 4) (Renilla luciferase [4]; Renilla)",High (Renilla luciferase [4]; Renilla/RenillaGlo),Low (Renilla luciferase [4]; Renilla/RenillaGlo),Peak (Renilla luciferase [4]; Renilla/RenillaGlo),Width (Renilla luciferase [4]; Renilla/RenillaGlo),"NanoGlo (spectral peak, Table 4) (NANOLUC® Luciferase [5])","OptiMEM (spectral peak, Table 4) (NANOLUC® Luciferase [5])",High (NANOLUC® Luciferase [5]; NanoGlo Buffer),Low (NANOLUC® Luciferase [5]; NanoGlo Buffer),Peak (NANOLUC® Luciferase [5]; NanoGlo Buffer),Width (NANOLUC® Luciferase [5]; NanoGlo Buffer),High (NANOLUC® Luciferase [5]; OptiMEM + 0.1% FBS),Low (NANOLUC® Luciferase [5]; OptiMEM + 0.1% FBS),Peak (NANOLUC® Luciferase [5]; OptiMEM + 0.1% FBS),Width (NANOLUC® Luciferase [5]; OptiMEM + 0.1% FBS),"λmax, nm (Autolum) (NANOLUC® Luciferase [6])",shift of the NanoLuc luciferase spectral properties (NANOLUC® Luciferase [5]),further results
"O=c1c(Cc2ccco2)nc2c(Cc3ccccc3)[nH]c(-c3ccccc3)cn1-2 [Furimazine, 8-benzyl-2-(furan-2-ylmethyl)-6-phenylimidazo[1,2-a]pyrazin-3(7H)-one]",460,436,490,403,436,87,463,463,520,433,463,87,499,430,463,69,–,–,"Vmax (Renilla luciferase [2]; [8]): 8,910; light produced by NanoLuc luciferase compared to Renilla (NANOLUC® Luciferase [3]): significantly more light than Renilla; Vmax (NANOLUC® Luciferase [3]; [9]): 33,470,000; OptiMEM (spectral peak, Table 4) (Renilla luciferase [4]; Renilla): 430; High (Renilla luciferase [4]; Renilla, OptiMEM + 0.1% FBS): 472; Low (Renilla luciferase [4]; Renilla, OptiMEM + 0.1% FBS): 403; Peak (Renilla luciferase [4]; Renilla, OptiMEM + 0.1% FBS): 430; Width (Renilla luciferase [4]; Renilla, OptiMEM + 0.1% FBS): 69"
"O=c1c(Cc2ccco2)nc2c(-c3ccnc(F)c3)[nH]c(-c3ccnc(F)c3)cn1-2 [AS-295, 26,8-bis(2-fluoropyridin-4-yl)-2-(furan-2-ylmethyl)imidazo[1,2-a]pyrazin-3(7H)-one]",–,–,–,–,–,–,–,–,–,–,–,–,–,–,–,–,520 (Autolum) nm,–,–
"O=c1c(Cc2ccco2)nc2c(-c3ccnc4ccccc34)[nH]c(-c3ccccc3)cn1-2 [AS-310, 2-(furan-2-ylmethyl)-6-phenyl-8-(quinolin-4-yl)imidazo[1,2-a]pyrazin-3(7H)-one]",571,–,–,–,–,–,574,571,631,526,574,105,631,520,571,111,–,shifted the NanoLuc® luciferase spectral properties to red,–
"O=c1c(Cc2ccco2)nc2c(-c3ccccc3)[nH]c(-c3ccccc3)cn1-2 [AS-174, 2-(furan-2-ylmethyl)-6,8-diphenylimidazo[1,2-a]pyrazin-3(7H)-one]",496,–,–,–,–,–,493,490,541,460,493,81,535,460,490,75,–,shifted the NanoLuc® luciferase spectral properties to red,–
"N#Cc1ccc(-c2[nH]c(-c3ccccc3)cn3c(=O)c(Cc4ccco4)nc2-3)s1 [AS-262, 5-(2-(furan-2-ylmethyl)-3-oxo-6-phenyl-3,7-dihydroimidazo[1,2-a]pyrazin-8-yl)thiophene-2-carbonitrile]",574,–,–,–,–,–,577,574,634,535,577,99,625,532,574,93,–,shifted the NanoLuc® luciferase spectral properties to red,–
Oc1ccc(-c2cn3c(O)c(Cc4ccccc4)nc3c(Cc3ccccc3)n2)cc1 [Coelenterazine-H],–,490,541,454,490,87,466,460,508,433,466,75,502,433,460,69,–,–,"more light with Renilla luciferase compared to Furimazine (Renilla luciferase [2]; FIGS. 1A-1D): ~7 ×; Km (Renilla luciferase [2]; [8]): 3.26 µM; Vmax (Renilla luciferase [2]; [8]): 64,494; light produced by NanoLuc luciferase compared to Renilla (NANOLUC® Luciferase [3]): significantly more light than Renilla; Vmax (NANOLUC® Luciferase [3]; [9]): 19,790,000; Km (NANOLUC® Luciferase [3]; NanoLuc 4 ng/ml, Renilla Glo buffer, Michaelis-Menten fit, read-out: Km): 36.4 µM; OptiMEM (spectral peak, Table 4) (Renilla luciferase [4]; Renilla): 487; High (Renilla luciferase [4]; Renilla, OptiMEM + 0.1% FBS): 535; Low (Renilla luciferase [4]; Renilla, OptiMEM + 0.1% FBS): 451; Peak (Renilla luciferase [4]; Renilla, OptiMEM + 0.1% FBS): 487; Width (Renilla luciferase [4]; Renilla, OptiMEM + 0.1% FBS): 84"
"O=c1c(Cc2ccco2)nc2c(-c3ccnc4ccccc34)[nH]c(-c3ccc(O)cc3)cn1-2 [AS-360, 2-(furan-2-ylmethyl)-6-(4-hydroxyphenyl)-8-(quinolin-4-yl)imidazo[1,2-a]pyrazin-3(7H)-one]",–,487,553,451,487,102,589,583,647,538,589,109,646,532,583,114,–,shifted the NanoLuc® luciferase spectral properties to red,luminescence rank in the panel tested (NANOLUC® Luciferase [7]): brightest luminescence in the panel tested; brighter than both Renilla and NanoLuc luciferase with AS-361 (NANOLUC® Luciferase [7]; substrate 100 uM): ~30 ×
"N#Cc1ccc(-c2[nH]c(-c3cccs3)cn3c(=O)c(Cc4ccco4)nc2-3)s1 [AS-287, 5-(2-(furan-2-ylmethyl)-3-oxo-6-(thiophen-2-yl)-3,7-dihydroimidazo[1,2-a]pyrazin-8-yl)thiophene-2-carbonitrile]",–,–,–,–,–,–,–,–,–,–,–,–,–,–,–,–,556 (Autolum) nm,–,–
"N#Cc1ccc(-c2[nH]c3ccccc3n3c(=O)c(Cc4ccco4)nc2-3)s1 [AS-293, 5-(2-(furan-2-ylmethyl)-1-oxo-1,5-dihydroimidazo[1,2-a]quinoxalin-4-yl)thiophene-2-carbonitrile]",–,–,–,–,–,–,–,–,–,–,–,–,–,–,–,–,596 (Autolum) nm,–,–
